Experiments:
[1] = basic side chain / imidazole ring; cited from earlier work
[2] = test system: 293T7 cells (human kidney embryonal fibroblasts); experiment: Transfection of 293T7 cells with luciferase plasmid/liposome complexes; assay type: cell-based; settings: for transfection efficiency when associated with co-lipids 2c or 7b compared with DOPE: 293T line cells, tests considered as a whole; for observed luminescence values: 293T cells; for efficiency gain as compared to DOPE: value in brackets
Method: A lipid film was prepared in a sterile flask under nitrogen by dry evaporating 1 mL of a 10.8 mM cationic lipid or a mixture of a cationic lipid/neutral lipid (molar ratio 1:1) in ethanol. The film was then hydrated with 1 mL of 10 mM HEPES buffer, pH 7.4, the solution was vigorously stirred for 3 min, then allowed to rest at 4° C. After 2 h, the solution was sonicated for 15 min in an ultrasonic bath at 37 kHz (Bioblock ultrasonic bath, Bioblock Scientific, Illkirch, France).
18 μl of a solution of liposomes at 5.4 mM were diluted in 200 μl of 10 mM HEPES buffer, pH 7.4. After 15 min, 7.5 μg of a plasmid encoding the gene of the luciferase (pTG11033; 9514 bp, Transgene S. A., Strasbourg, France) in 20 μl of 10 mM HEPES buffer, pH 7.4, were added to the liposomes and the mixture was allowed to rest for 30 min. The solution comprising the DNA/liposome complexes was adjusted to 1.5 ml with some culture medium free of serum and at 0.15M NaCl with a solution of 5M NaCl.
Two days before transfection, 293T7 cells (human kidney embryonal fibroblasts) were seeded with 1×10^5 cells in 1 mL of a culture medium in a 24-well plate. The day of the transfection, cells achieved 80% confluence. Cells were washed twice with some medium free of serum prior to adding 2.5 μg of DNA in the form of DNA/liposome complexes. After 4 h of incubation at 37° C., the medium was removed and cells were cultured for 48 h with complete culture medium.
The culture medium of the cells was removed and each well was rinsed with 500 μL of PBS. Cell detachment was obtained with 500 μL of the PBS+trypsin per well for 5 min at 37° C. The cell suspension was then centrifuged for 5 min at 250×g (1500 rpm) at 20° C. 400 μL of lysis buffers (CCLR, Promega) were added on the cell pellet, which was allowed to incubate onto ice for 15 min. After Vortex-stirring, centrifugation was effected at 12 000×g for 2 min at 4° C. The luciferase activity contained in 20 μL of supernatant was measured using a luminometer (Bertold Lumat LB 9501) for 10 seconds after injection of 100 μL of luciferin (Luciferase Assay Reagent, Promega). The light transmitted was converted to arbitrary units relative to the protein amount in the sample determined through the bicinchoninic acid method.
The protein amount in the lysate was evaluated through the BCA method (H. Hill and G. Straka, 1998). Proteins were contacted with bicinchoninic acid (BCA) and copper ions in an alkaline medium. The copper ions resulting from the protein-mediated reduction thereof formed stable, colored complexes with BCA. Coloration is objectified through spectrophotometric determination (562 nm). Once a standard range was obtained using bovine serum albumin, the weight of protein contained in the cell lysates was calculated.

[3] = pKa of basic side chain / imidazole ring; assay type: physicochemical
[4] = co-lipid 2c (molar ratio 1:1), 48 h after transfection
[5] = co-lipid 7b (molar ratio 1:1), 48 h after transfection
[6] = co-lipid DOPE (molar ratio 1:1), 48 h after transfection
[7] = no co-lipid (—), luciferase plasmid pTG11033, 48 h after transfection

Compound	pKa [1]	transfection efficiency when associated with co-lipids 2c or 7b compared with DOPE [2]	observed luminescence values [2, 4]	efficiency gain as compared to DOPE ([2]; co-lipid 2c)	observed luminescence values [2, 5]	efficiency gain as compared to DOPE ([2]; co-lipid 7b)	observed luminescence values [2, 6]	observed luminescence values [2, 7]	imidazole ring protonated at a physiological pH [3]
N=C(N)NCCCC[C@H](N)C(=O)O [Homoarginine]	12.5								
lysine methyl ester dioleoyl-N-phosphoramidate [compound 4]		more efficient	5.10^7 TRLU	1.6	4.10^7 TRLU	1.3	3.10^7 TRLU	2.10^7 TRLU	
arginine methyl ester dioleoyl-N-phosphoramidate [3a]		more efficient	5.10^8 TRLU	100	10^6 TRLU	0.2	5.10^6 TRLU	7.10^6 TRLU	
COC(=O)[C@@H](N)CCCNC(=N)N [arginine methyl ester]	12.48								
N[C@@H](Cc1c[nH]cn1)C(=O)O [histidine]									about 5%
c1c[nH]cn1 [imidazole]	about 6								
homoarginine methyl ester dioleoyl-N-phosphoramidate [3b]		more efficient	3.10^9 TRLU	1000	3.10^7 TRLU	10	3.10^6 TRLU	9.10^6 TRLU	
COC(=O)[C@@H](N)CCCCN [lysine methyl ester]	10.57								

Reference: patent US20110008415A1, “NOVEL LIPOPHILIC COMPOSITIONS AND USES THEREOF” (UNIVERSITE DE BRETAGNE OCCIDENTALE, priority 2007, published 2011)
